Bridge positions count the residues as written; N and C are the ends. Square brackets hold non-standard residues; d marks the D form. Ends that are not written are not given here. Peptide text beside a SMILES is read from it. R8 = C=CCCCCCC[C@@](C)(N)C(=O)O; S5 = C=CCCC[C@](C)(N)C(=O)O
How the values were obtained:
[1] = On-resin ring-closing olefin metathesis (all-hydrocarbon stapling, S5/S5 i,i+4 or R8/S5 i,i+7), first-generation Grubbs catalyst (3 equiv); then Fmoc removal, TFA cleavage, RP-HPLC; details: the molecule shown is the open-chain precursor, 21-membered ring, 1,2-dichloroethane (dry), 25.0 °C, 4.0 h
[2] = Circular dichroism spectroscopy, percent helicity; assay type: physicochemical; details: CD, TFE/water (1:1), 0.1 mg/ml, 20°C
Description: Peptides were dissolved in TFE/water (1:1, v/v, 0.1 mg/ml). CD data were recorded in 10-mm path length, a quartz cell at 20°C. Percent helicity was calculated by the following equation ([Wang et al., 2006]). α=[θ]222/[θ]max×100% [θ]222 is the molar ellipticity of 222 nm; [θ]max = (−44,000 + 250T) (1 − k/n), where k = 4, n is the numbers of amino acids, and T = 20°C.

α-chymotrypsin = α-chymotrypsin (Bos taurus, UniProt P00766); assay: in vitro; details: for Degradation during protease exposure: 1 h
Description: Peptides in DMSO solution (1 mM) was mixed with α-chymotrypsin in PBS buffer (0.5 ng/μl) containing 2 mM CaCl2 and incubated at 37°C. The percentage of peptide was measured by HPLC at 0, 5, 10, 20, 30, and 60 min([Wang et al., 2020]).

rabbit red blood cells = details: 4% rabbit red blood cells, 1 h, 37°C
Description: Two hundred microliters of 4% rabbit red blood cells in a 96-well plate was added different concentrations of peptides. After 1 h of incubation at 37°C and following centrifugation, the release of hemoglobin was monitored by the absorbance at 450 nm of supernatant. Zero hemolysis was determined without adding any other reagents, and 100% hemolysis was determined in 10% Triton X-100. Hemolysis percentage hemolysis was calculated as: (Apeptide − Ablank)/(ATriton − Ablank) × 100%. All hemolysis determinations were conducted in three repeated experiments ([Deng et al., 2015]).

HUH-7 = details: read-out: IC50 HUH-7; CCK-8, 48 h
Description: (§1) MCF-7, HUH-7, U87, and Nthy-ori 3-1 cell lines were used to test cell viability. All the cell lines were cultured in a humid environment at 37°C with 5% CO2. The anticancer activity of B1 and its derivatives were evaluated by the CCK-8 reagent. All peptides tested were dissolved in DMSO and finally added to each well in 1‰ volume. The cells were seeded in a 96-well plate at a number of 5 × 10^3 cells per well. After overnight incubation, they were administered with different concentrations of peptides. Ten percent CCK-8 solution without FBS was added to each well after 48 h. After incubation at 37°C for 30 min, the optical density (OD) at 450 nm was recorded with a microplate reader ([Deng et al., 2015]).

MCF-7 = details: read-out: IC50 MCF-7; CCK-8, 48 h
Description: as §1

U87 = details: read-out: IC50 U87; CCK-8, 48 h
Description: as §1

[3] = α-chymotrypsin (0.5 ng/μl) in PBS buffer

Compound | ring closure, overall yield [1] [%] | Helicity (%) [2] [%] | half-life (α-chymotrypsin; α-chymotrypsin) [min] | half-life (α-chymotrypsin; [3]) [min] | HC50, half hemolysis concentration (rabbit red blood cells) [µM] | IC50 (HUH-7) [µM] | IC50 (MCF-7) [µM] | IC50 (U87) [µM] | Degradation during protease exposure (α-chymotrypsin; α-chymotrypsin)
C=CCCC[C@](C)(NC(=O)[C@H](CCCNC(=N)NS(=O)(=O)c1c(C)c(C)c2c(c1C)CC(C)(C)O2)NC(=O)[C@H](Cc1ccccc1)NC(=O)[C@H](Cc1ccccc1)NC(=O)[C@](C)(CCCC=C)NC(=O)[C@H](CCCCNC(=O)OC(C)(C)C)NC(=O)[C@H](Cc1ccccc1)NC(=O)[C@H](CCCNC(=N)NS(=O)(=O)c1c(C)c(C)c2c(c1C)CC(C)(C)O2)NC(=O)[C@H](CCCCNC(=O)OC(C)(C)C)NC(=O)[C@@H](NC(=O)OCC1c2ccccc2-c2ccccc21)C(C)C)C(=O)N[C@@H](CC(C)C)C(=O)N[C@@H](CCCCNC(=O)OC(C)(C)C)C(=O)N[C@@H](CCCCNC(=O)OC(C)(C)C)C(=O)N[C@@H](CC(C)C)C(=O)N[C@H](C(N)=O)C(C)C | 66 | – | – | – | – | – | – | – | –
C=CCCC[C@](C)(NC(=O)[C@H](Cc1ccccc1)NC(=O)[C@H](Cc1ccccc1)NC(=O)[C@H](CCCCNC(=O)OC(C)(C)C)NC(=O)[C@H](CCCCNC(=O)OC(C)(C)C)NC(=O)[C@H](Cc1ccccc1)NC(=O)[C@H](CCCNC(=N)NS(=O)(=O)c1c(C)c(C)c2c(c1C)CC(C)(C)O2)NC(=O)[C@H](CCCCNC(=O)OC(C)(C)C)NC(=O)[C@@H](NC(=O)OCC1c2ccccc2-c2ccccc21)C(C)C)C(=O)N[C@@H](CCCCNC(=O)OC(C)(C)C)C(=O)N[C@@H](CC(C)C)C(=O)N[C@@H](CCCCNC(=O)OC(C)(C)C)C(=O)N[C@@](C)(CCCC=C)C(=O)N[C@@H](CC(C)C)C(=O)N[C@H](C(N)=O)C(C)C | 68 | – | – | – | – | – | – | – | –
C=CCCC[C@](C)(NC(=O)[C@H](Cc1ccccc1)NC(=O)[C@H](Cc1ccccc1)NC(=O)[C@H](CCCCNC(=O)OC(C)(C)C)NC(=O)[C@](C)(CCCC=C)NC(=O)[C@H](Cc1ccccc1)NC(=O)[C@H](CCCNC(=N)NS(=O)(=O)c1c(C)c(C)c2c(c1C)CC(C)(C)O2)NC(=O)[C@H](CCCCNC(=O)OC(C)(C)C)NC(=O)[C@@H](NC(=O)OCC1c2ccccc2-c2ccccc21)C(C)C)C(=O)N[C@@H](CCCCNC(=O)OC(C)(C)C)C(=O)N[C@@H](CC(C)C)C(=O)N[C@@H](CCCCNC(=O)OC(C)(C)C)C(=O)N[C@@H](CCCCNC(=O)OC(C)(C)C)C(=O)N[C@@H](CC(C)C)C(=O)N[C@H](C(N)=O)C(C)C | 64 | – | – | – | – | – | – | – | –
CC(C)C[C@H](NC(=O)[C@H](CCCCN)NC(=O)[C@H](CCCNC(=N)N)NC(=O)[C@H](Cc1ccccc1)NC(=O)[C@H](Cc1ccccc1)NC(=O)[C@]1(C)CCC/C=C\CCC[C@](C)(NC(=O)[C@@H](N)C(C)C)C(=O)N[C@@H](CCCNC(=N)N)C(=O)N[C@@H](Cc2ccccc2)C(=O)N[C@@H](CCCCN)C(=O)N1)C(=O)N[C@@H](CCCCN)C(=O)N[C@@H](CCCCN)C(=O)N[C@@H](CC(C)C)C(=O)N[C@H](C(N)=O)C(C)C [B1-L-1, VS5RFKS5FFRKLKKLV-NH2] (H-V[S5]RFK[S5]FFRKLKKLV-NH2; staple (Z) 2-6) | – | 47.2 | > 60 | – | – | – | – | – | –
CC(C)C[C@H](NC(=O)[C@H](CCCCN)NC(=O)[C@]1(C)CCCC=CCCC[C@](C)(NC(=O)[C@H](Cc2ccccc2)NC(=O)[C@H](CCCNC(=N)N)NC(=O)[C@H](CCCCN)NC(=O)[C@@H](N)C(C)C)C(=O)N[C@@H](CCCCN)C(=O)N[C@@H](Cc2ccccc2)C(=O)N[C@@H](Cc2ccccc2)C(=O)N1)C(=O)N[C@@H](CCCCN)C(=O)N[C@@H](CCCCN)C(=O)N[C@@H](CC(C)C)C(=O)N[C@H](C(N)=O)C(C)C [B1-L-2, VKRFS5KFFS5KLKKLV-NH2] (H-VKRF[S5]KFF[S5]KLKKLV-NH2; staple 5-9; N-terminus assumed) | – | 35.5 | – | > 60 | >80 | 6.18 ± 0.63 | 6.59 ± 0.42 | 8.86 ± 1.43 | –
CC(C)C[C@H](NC(=O)[C@H](CCCCN)NC(=O)[C@H](CCCCN)NC(=O)[C@H](CC(C)C)NC(=O)[C@]1(C)CCCC=CCCC[C@](C)(NC(=O)[C@H](CCCCN)NC(=O)[C@H](Cc2ccccc2)NC(=O)[C@H](CCCNC(=N)N)NC(=O)[C@H](CCCCN)NC(=O)[C@@H](N)C(C)C)C(=O)N[C@@H](Cc2ccccc2)C(=O)N[C@@H](Cc2ccccc2)C(=O)N[C@@H](CCCNC(=N)N)C(=O)N1)C(=O)N[C@H](C(N)=O)C(C)C [B1-L-3, VKRFKS5FFRS5LKKLV-NH2] (H-VKRFK[S5]FFR[S5]LKKLV-NH2; staple 6-10; N-terminus assumed) | – | 37 | – | > 60 | >80 | 5.96 ± 0.54 | 5.48 ± 0.89 | 3.59 ± 1.2 | –
CC(C)C[C@@H]1NC(=O)[C@H](CCCCN)NC(=O)[C@@](C)(NC(=O)[C@H](Cc2ccccc2)NC(=O)[C@H](Cc2ccccc2)NC(=O)[C@H](CCCCN)NC(=O)[C@H](CCCCN)NC(=O)[C@H](Cc2ccccc2)NC(=O)[C@H](CCCNC(=N)N)NC(=O)[C@H](CCCCN)NC(=O)[C@@H](N)C(C)C)CCCC=CCCC[C@@](C)(C(=O)N[C@@H](CC(C)C)C(=O)N[C@H](C(N)=O)C(C)C)NC(=O)[C@H](CCCCN)NC1=O [B1-L-4, VKRFKKFFS5KLKS5LV-NH2] (H-VKRFKKFF[S5]KLK[S5]LV-NH2; staple 9-13; N-terminus assumed) | – | 35 | – | > 60 | >80 | 13.4 ± 1.92 | 15.2 ± 1.02 | 17.9 ± 3.23 | –
CC(C)C[C@H](NC(=O)[C@H](CCCCN)NC(=O)[C@]1(C)CCCC=CCCCCCC[C@@](C)(NC(=O)[C@@H](N)C(C)C)C(=O)N[C@@H](CCCNC(=N)N)C(=O)N[C@@H](Cc2ccccc2)C(=O)N[C@@H](CCCCN)C(=O)N[C@@H](CCCCN)C(=O)N[C@@H](Cc2ccccc2)C(=O)N[C@@H](Cc2ccccc2)C(=O)N1)C(=O)N[C@@H](CCCCN)C(=O)N[C@@H](CCCCN)C(=O)N[C@@H](CC(C)C)C(=O)N[C@H](C(N)=O)C(C)C [B1-L-5, VR8RFKKFFS5KLKKLV-NH2] (H-V[R8]RFKKFF[S5]KLKKLV-NH2; staple 2-9; N-terminus assumed) | – | 24.8 | – | > 60 | >80 | 13.8 ± 1.53 | 14 ± 0.73 | 14.3 ± 2.35 | –
CC(C)C[C@H](NC(=O)[C@H](CCCCN)NC(=O)[C@]1(C)CCCC=CCCCCCC[C@@](C)(NC(=O)[C@H](Cc2ccccc2)NC(=O)[C@H](CCCNC(=N)N)NC(=O)[C@H](CCCCN)NC(=O)[C@@H](N)C(C)C)C(=O)N[C@@H](CCCCN)C(=O)N[C@@H](Cc2ccccc2)C(=O)N[C@@H](Cc2ccccc2)C(=O)N[C@@H](CCCNC(=N)N)C(=O)N[C@@H](CCCCN)C(=O)N[C@@H](CC(C)C)C(=O)N1)C(=O)N[C@H](C(N)=O)C(C)C [B1-L-6, VKRFR8KFFRKLS5KLV-NH2] (H-VKRF[R8]KFFRKL[S5]KLV-NH2; staple 5-12; N-terminus assumed) | – | 39.8 | – | 55.3 | >80 | 5.89 ± 0.43 | 5.15 ± 1.04 | 4.58 ± 0.93 | –
CC(C)C[C@@H]1NC(=O)[C@H](CCCCN)NC(=O)[C@H](CCCNC(=N)N)NC(=O)[C@H](Cc2ccccc2)NC(=O)[C@H](Cc2ccccc2)NC(=O)[C@](C)(NC(=O)[C@H](CCCCN)NC(=O)[C@H](Cc2ccccc2)NC(=O)[C@H](CCCNC(=N)N)NC(=O)[C@H](CCCCN)NC(=O)[C@@H](N)C(C)C)CCCCCCC=CCCC[C@@](C)(C(=O)N[C@@H](CC(C)C)C(=O)N[C@H](C(N)=O)C(C)C)NC(=O)[C@H](CCCCN)NC1=O [B1-L-7, VKRFKR8FFRKLKS5LV-NH2] (H-VKRFK[R8]FFRKLK[S5]LV-NH2; staple 6-13; N-terminus assumed) | – | 31.6 | – | > 60 | >80 | 7.49 ± 1.2 | 13.4 ± 1.22 | 12.7 ± 1.63 | –
VKRFKKFFRKLKKLV-NH2 [B1-Leu, VKRFKKFFRKLKKLV-NH2] | – | 23.5 | – | 8.5 | >80 | 11.8 ± 0.72 | 13.4 ± 0.53 | 16.2 ± 3.32 | completely degraded
VKRFKKFFRKLKKSV-NH2 [B1, VKRFKKFFRKLKKSV-NH2, reference compound] | – | 8.9 | – | 8.3 | >80 | > 50 | > 50 | > 50 | completely degraded

From publication PMC9021566, “Design, Synthesis, and Antitumor Activity Study of All-Hydrocarbon-Stapled B1-Leu Peptides” (Frontiers in Chemistry, 2022)
